Patent publication US10125095B2, “Abscisic acid derivative” (NATIONAL UNIVERSITY CORPORATION SHIZUOKA UNIVERSITY, priority 2014, dated 2018)

Columns and labels:
Assay type in all cases: biochemical, thale cress
Conditions in all cases: control = 100%
PYL6 = target: T1, PYL6 (Arabidopsis thaliana, UniProt Q8S8E3); test: Protein dephosphorylation enzyme activity test, PYL6
T1 construct: 6xHis (N); made in house; host or cells: Escherichia coli BL21-codonplus(DE3)-RIPL (PYL); BL21(DE3)pLysS (HAB1)
T1 sequence (Q8S8E3 1-215): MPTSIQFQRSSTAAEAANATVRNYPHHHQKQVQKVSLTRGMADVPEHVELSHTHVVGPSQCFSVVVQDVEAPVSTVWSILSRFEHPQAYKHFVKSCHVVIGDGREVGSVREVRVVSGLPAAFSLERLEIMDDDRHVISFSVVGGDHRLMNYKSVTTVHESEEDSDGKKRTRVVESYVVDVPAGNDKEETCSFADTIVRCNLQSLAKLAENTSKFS
Description: (§1) A plasmid (pGex-2T-GST-HAB1 or pET28-6×His-PYL) encoded with PYR/PYL/RCAR proteins (PYL, abscisic acid receptor) or protein dephosphorylation enzyme HAB1 of thale cress was transformed to Escherichia coli (HAB1:BL21(DE3)pLysS, PYL:BL21-codonplus(DE3)-RIPL). Isopropyl-β-thiogalactopyranoside was added to the culture broth, which had been subjected to pre-culture (30° C., 180 rpm, 15 hours) and main culture (30° C., 180 rpm, 4 hours), and the protein-expressed (16° C., 150 rpm, 18 hours) crude enzyme solution was purified using FPLC thereby preparing the recombined PYL (PYR1, PYL1-6, PYL8-10) and HAB1. β-Mercaptoethanol, a manganese chloride aqueous solution, HAB1, PYL, a solution of the sample in dimethylsulfoxide and ultrapure water were sequentially added to a 96-well plate, allowed to stand at 22° C. for 30 minutes. Subsequently p-nitrophenylphosphate, which is the artificial substrate of HAB1, was added thereto to start the reaction, and the plate was placed in a microplate reader (TECAN, Infinite™ N200 NanoQuant). The absorbance at 405 nm due to p-nitrophenol, which is the hydrolysate of p-nitrophenylphosphate, was measured 3 minutes later from the reaction initiation, and HAB1 activity was calculated by the following formula (2). Note that the fraction to which only dimethylsulfoxide was added was considered to be the control and the activity thereof was defined as 100%. […] HAB1 specific activity (%)=Absorbance when sample was added/Absorbance of control×100 (2)

PYL8 = target: T2, PYL8 (Arabidopsis thaliana, UniProt Q9FGM1); test: Protein dephosphorylation enzyme activity test, PYL8
T2 construct: 6xHis (N); made in house; host or cells: Escherichia coli BL21-codonplus(DE3)-RIPL (PYL); BL21(DE3)pLysS (HAB1)
T2 sequence (Q9FGM1 1-188): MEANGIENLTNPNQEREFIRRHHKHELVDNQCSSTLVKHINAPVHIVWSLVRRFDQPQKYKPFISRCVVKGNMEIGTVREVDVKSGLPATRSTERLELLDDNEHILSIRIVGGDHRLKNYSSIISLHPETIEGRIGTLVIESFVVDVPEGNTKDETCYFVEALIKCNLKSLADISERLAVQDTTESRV
Description: as §1

PYL10 = target: T3, PYL10 (Arabidopsis thaliana, UniProt Q8H1R0); test: Protein dephosphorylation enzyme activity test, PYL10
T3 construct: 6xHis (N); made in house; host or cells: Escherichia coli BL21-codonplus(DE3)-RIPL (PYL); BL21(DE3)pLysS (HAB1)
T3 sequence (Q8H1R0 1-183): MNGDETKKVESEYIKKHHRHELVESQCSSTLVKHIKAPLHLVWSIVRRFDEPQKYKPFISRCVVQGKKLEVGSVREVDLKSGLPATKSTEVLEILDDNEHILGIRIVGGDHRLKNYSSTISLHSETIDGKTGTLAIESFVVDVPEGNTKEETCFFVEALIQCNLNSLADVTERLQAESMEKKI
Description: as §1

PYL5 = target: T4, PYL5 (Arabidopsis thaliana, UniProt Q9FLB1); test: Protein dephosphorylation enzyme activity test, PYL5
T4 construct: 6xHis (N); made in house; host or cells: Escherichia coli BL21-codonplus(DE3)-RIPL (PYL); BL21(DE3)pLysS (HAB1)
T4 sequence (Q9FLB1 1-203): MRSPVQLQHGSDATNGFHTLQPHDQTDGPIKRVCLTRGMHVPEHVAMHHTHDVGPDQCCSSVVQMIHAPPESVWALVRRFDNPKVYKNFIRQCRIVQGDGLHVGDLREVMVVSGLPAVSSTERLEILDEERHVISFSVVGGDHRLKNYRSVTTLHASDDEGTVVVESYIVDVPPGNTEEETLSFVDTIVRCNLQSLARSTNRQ
Description: as §1

PYR1 = target: T5, PYR1 (Arabidopsis thaliana, UniProt O49686); test: Protein dephosphorylation enzyme activity test, PYR1
T5 construct: 6xHis (N); made in house; host or cells: Escherichia coli BL21-codonplus(DE3)-RIPL (PYL); BL21(DE3)pLysS (HAB1)
T5 sequence (O49686 1-191): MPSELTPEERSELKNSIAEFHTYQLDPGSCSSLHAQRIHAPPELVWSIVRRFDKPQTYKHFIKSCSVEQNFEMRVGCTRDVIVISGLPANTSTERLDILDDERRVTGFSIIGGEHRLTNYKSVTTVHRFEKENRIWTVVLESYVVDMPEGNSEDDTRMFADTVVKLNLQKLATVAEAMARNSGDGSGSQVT
Description: as §1

PYL4 = target: T6, PYL4 (Arabidopsis thaliana, UniProt O80920); test: Protein dephosphorylation enzyme activity test, PYL4
T6 construct: 6xHis (N); made in house; host or cells: Escherichia coli BL21-codonplus(DE3)-RIPL (PYL); BL21(DE3)pLysS (HAB1)
T6 sequence (O80920 1-207): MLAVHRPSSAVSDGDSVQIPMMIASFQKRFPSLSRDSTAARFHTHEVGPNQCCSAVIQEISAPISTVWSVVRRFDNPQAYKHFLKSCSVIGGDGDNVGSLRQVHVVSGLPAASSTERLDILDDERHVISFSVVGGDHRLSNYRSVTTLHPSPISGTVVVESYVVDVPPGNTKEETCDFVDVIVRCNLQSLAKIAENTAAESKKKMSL
Description: as §1

Row | SMILES | HAB1 Specific activity (%) PYL6 (PYL6; sample alone) | HAB1 Specific activity (%) PYL8 (PYL8; sample alone) | HAB1 Specific activity (%) PYL10 (PYL10; sample alone) | HAB1 Specific activity (%) PYL5 (PYL5; sample alone) | HAB1 Specific activity (%) PYR1 (PYR1; sample alone) | HAB1 Specific activity (%) PYL4 (PYL4; sample alone) | HAB1 Specific activity (%) PYL6 (PYL6; ABA + compound) | HAB1 Specific activity (%) PYL8 (PYL8; ABA + compound) | HAB1 Specific activity (%) PYL10 (PYL10; ABA + compound) | HAB1 Specific activity (%) PYL5 (PYL5; ABA + compound) | HAB1 Specific activity (%) PYR1 (PYR1; ABA + compound) | HAB1 Specific activity (%) PYL4 (PYL4; ABA + compound)
1 | CC1=CC(=O)CC(C)(C)[C@@]1(O)/C=C/C(C)=C\C(=O)O [ABA, abscisic acid] | 19.5% | 13.9% | 16.2% | 15.5% | 18.6% | 18.2% | – | – | – | – | – | –
2 | CC1=C[C@@H](OCC#Cc2ccccc2)CC(C)(C)[C@@]1(O)/C=C/C(C)=C\C(=O)O [Example 1, (2Z,4E)-5-((1S,4S)-1-hydroxy-2,6,6-trimethyl-4-((3-phenylprop-2-yn-1-yl)oxy)cyclohex-2-en-1-yl)-3-methylpenta-2,4-dienoic acid] | 122% | 105% | 93.7% | 85.8% | 99.6% | 108% | 87.6% | 76.9% | 90.7% | 87% | 49% | –
3 | CC1=C[C@@H](OCC#Cc2ccc(C)cc2)CC(C)(C)[C@@]1(O)/C=C/C(C)=C\C(=O)O [Example 7] | 93.5% | 98.5% | 99.0% | 85.5% | 95.7% | 119% | 61.0% | 98.7% | 82.5% | 74.6% | 62.6% | 101%
